Key:
Bmal1 clock gene [1] = test: Bmal1 clock gene expression in HepG2 cells by qPCR; assay type: cell-based, human; details: HepG2, 50 μg/mL, eight hours after addition, DMSO control
Description: (§1) Cultured cells (human liver cancer-derived cell line HepG2) were seeded at 2.5×10^3 cells/cm^2 in a T-75 flask (BD Falcon™), and medium replacement (RPMI1640, 10% FBS) was performed every three days. The cells reaching 80% confluence were passaged at a concentration of 4.2×10^4 cells/mL in a 6-well plate (BD Falcon™), and in order to entrain the phases of the circadian rhythms of the cells, the medium was replaced with a low-serum medium (RPMI1640, 2% FBS) after three days. Three days after the replacement with a low-serum medium, the cells were subjected to testing. A solution of the test substance in DMSO (50 μg/μL) was prepared and added to the 6-well plate to give a final concentration of the test substance of 50 μg/mL. As a control, DMSO was added to the 6-well plate (to give a final concentration of 0.1%).
(§2) Eight hours after the addition of the test substance, the cells were harvested, and mRNA was extracted according to a conventional method. The extracted mRNA was used to analyze the expression levels of the Bmal1 and Per1 clock genes by qPCR (with Applied Biosystems 7900HT Fast Real-Time PCR System).

Per1 clock gene [2] = test: Per1 clock gene expression in HepG2 cells by qPCR; assay type: cell-based, human; details: HepG2, 50 μg/mL, eight hours after addition, DMSO control
Description: as §1, §2

Per1 clock gene [3] = test: Per1 clock gene expression in liver of SD rats by quantitative PCR; assay type: in vivo; details: 200 mg/5 mL/kg orally once daily for 5 days, sampled four hours after the last treatment
Description: (§3) Seven-week-old male SD rats were habituated for one week and then classified into a test food group (isolated oleuropein group) and a control group (each group consisting of 6 animals). Next, the isolated oleuropein was dissolved in distilled water (produced by Otsuka Pharmaceutical Co., Ltd.), and the solution was orally administered forcibly to the test food group at a dose of 200 mg/5 mL/kg once daily for 5 days. The control food group was orally fed forcibly with distilled water (produced by Otsuka Pharmaceutical Co., Ltd.) at a dose of 5 mL/kg once daily for 5 days. Four hours after the last treatment, liver sampling was done.
(§4) From the liver samples collected, total RNA was extracted according to a conventional method, and used to analyze the expression levels of the Bmal1 and Per1 clock genes by quantitative PCR (with Applied Biosystems 7900HT Fast Real-Time PCR System).

Bmal1 clock gene [4] = test: Bmal1 clock gene expression in liver of SD rats by quantitative PCR; assay type: in vivo; details: 200 mg/5 mL/kg orally once daily for 5 days, sampled four hours after the last treatment
Description: as §3, §4

Row | SMILES | Bmal1 expression (Bmal1 clock gene [1]) | Per1 expression (Per1 clock gene [2]) | Per1 expression as compared to the control group (Per1 clock gene [3]) | Bmal1 expression as compared to the control group (Bmal1 clock gene [4])
1 | COC(=O)C1=CO[C@@H](C)[C@@H](C=O)C1CC(=O)OCCc1ccc(O)c(O)c1 (mixture of isomers) [3,4-DHPEA-EA, 3,4-Dihydroxyphenylethanol-elenolic acid] | reduced | increasing | – | –
2 | C/C=C1/[C@H](O[C@@H]2O[C@H](CO)[C@@H](O)[C@H](O)[C@H]2O)OC=C(C(=O)OC)[C@H]1CC(=O)OCCc1ccc(O)c(O)c1 [isolated oleuropein, Oleuropein] | – | – | significant increase | significant decrease

Reference: patent US20160206642A1, “CLOCK GENE EXPRESSION LEVEL REGULATOR” (SUNTORY HOLDINGS LIMITED, priority 2013, published 2016)
